From patent US7119073B2, “Peptides and their use as inhibitors of hepatitis C virus ns3 protease” (Istituto Di Ricerche Di Biologia Molecolare P. Angeletti SpA, priority 2001, dated 2006)
Read-outs that look alike come from different tables or passages of the source.

Assays:
[1] = target: T1, full length NS3 protein noncovalently complexed with the full-length NS4A cofactor protein (NS3/NS4A complex) (Hepatitis C virus genotype 1b, UniProt P26663); assay: Full-length NS3-NS4A heterodimer protein assay (Assay A); type: biochemical, hepatitis C virus (HCV)
T1 construct: full length NS3 protein spanning residues 1027–1657 of the HCV polyprotein
T1 sequence (P26663 1027-1657): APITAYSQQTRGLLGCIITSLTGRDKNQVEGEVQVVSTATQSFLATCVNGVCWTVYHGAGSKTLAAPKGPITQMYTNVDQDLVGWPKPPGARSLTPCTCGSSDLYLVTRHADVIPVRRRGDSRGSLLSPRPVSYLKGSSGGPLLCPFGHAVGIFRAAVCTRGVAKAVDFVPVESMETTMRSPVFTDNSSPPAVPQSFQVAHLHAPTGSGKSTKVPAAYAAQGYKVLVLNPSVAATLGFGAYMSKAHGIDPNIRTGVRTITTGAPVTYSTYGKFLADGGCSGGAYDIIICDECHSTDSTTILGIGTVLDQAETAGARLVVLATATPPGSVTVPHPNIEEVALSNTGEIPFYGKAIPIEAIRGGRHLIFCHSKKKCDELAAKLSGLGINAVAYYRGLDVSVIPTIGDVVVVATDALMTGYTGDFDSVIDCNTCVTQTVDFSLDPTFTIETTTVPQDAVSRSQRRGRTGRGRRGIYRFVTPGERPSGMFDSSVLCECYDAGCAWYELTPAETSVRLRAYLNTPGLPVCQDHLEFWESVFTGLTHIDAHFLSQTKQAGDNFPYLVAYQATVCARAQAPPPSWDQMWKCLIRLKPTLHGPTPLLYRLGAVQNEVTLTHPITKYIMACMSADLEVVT
T1 sequence (P26663 1658-1711): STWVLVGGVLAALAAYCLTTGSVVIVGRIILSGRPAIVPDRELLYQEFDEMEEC
Method: Full-Length NS3-NS4A Heterodimer Protein Assay (Assay A)
(Gallinari, P., Paolini, C., Brennan, D., Nardi, C., Steinkühler, C. and De Francesco, R. Modulation of hepatitis C virus NS3 protease and helicase activities through the interaction with NS4A. Biochemistry 38, 5620–5632, 1999)
In this assay the full length NS3 protein spanning residues 1027–1657 of the HCV polyprotein, noncovalently complexed with the full-length NS4A cofactor protein (residues 1658–1711) was used. Assays were performed in 60 μl of a buffer containing 50 mM Hepes pH 7.5, 0.15 M NaCl, 0.1% (v/v) Triton X-100, 15% (v/v) glycerol, 10 mM DTT, 2 nM NS3/NS4A complex. To this assay mix 10 μM (final concentration) of a peptide substrate corresponding to the NS5AB cleavage site and having the sequence of the NS5A-NS5B peptide, were added. Incubation times at 23° C. were adjusted to obtain <10% conversion. Reactions were stopped by the addition of 40 μl of 1% TFA. Cleavage was determined by HPLC using a Merck-Hitachi chromatograph equipped with an autosampler. 80 μl samples were injected on a Lichrospher C18 reversed phase cartridge column (4×74 mm, 5 μm, Merck) and fragments were separated using a 10–40% acetonitrile gradient at 5%/min using a flow rate of 2.5 ml/min. Peak detection was done by monitoring both the absorbance at 220 nm and tryptophan fluorescence (λex=280 nm, λem=350 nm). Cleavage products were quantitated by integration of chromatograms with respect to appropriate standards. Kinetic parameters were calculated from nonlinear least-squares fit of initial rates as a function of substrate concentration with the help of a Kaleidagraph software, assuming Michaelis-Menten kinetics.
Ki values of peptide inhibitors were calculated from substrate titration experiments performed in the presence of increasing amounts of inhibitor. Experimental data sets were simultaneously fitted to eg.1 using a multicurve fit macro with the help of a Sigmaplot software: V=(VmaxS)/(Km([…])+S); (eq.1) Alternatively, Ki values were derived from IC50 values, calculated using a four-parameter logistic function, according to eq.2: IC50=(1+S/Km)Ki (eq.2)

[2] = target: T2, NS3 protease domain complexed to a modified form of the NS4A peptide (Pep4AK) (Hepatitis C virus genotype 1b, UniProt P26663); assay: HCV NS3 protease domain/NS4A cofactor peptide assay (Assay B); type: biochemical
T2 construct: NS3 protease domain (residues 1027–1206 of the HCV polyprotein)
T2 sequence (P26663 1027-1206, other chains not shown): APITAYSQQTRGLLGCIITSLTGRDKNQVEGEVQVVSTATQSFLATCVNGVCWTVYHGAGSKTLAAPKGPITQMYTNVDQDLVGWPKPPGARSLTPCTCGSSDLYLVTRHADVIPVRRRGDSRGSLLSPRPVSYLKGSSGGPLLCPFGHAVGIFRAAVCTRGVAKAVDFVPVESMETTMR

[3] = Table 5, full-length NS3/NS4A, read-out: AssayA

Row | SMILES | IC50 [1, 3] | also measured
1 | CC(C)C[C@H](NC(=O)C1(Cc2cccc(C(=O)O)c2)CCc2ccccc2N1)C(=O)N[C@@H](CC(F)F)C(=O)NCCc1ccc(C(=O)O)cc1Cl (single isomer, unassigned) [Compound 712b] |  | IC50 [1]: < 100 µM; IC50 ([2]; NS3 protease domain/NS4A cofactor peptide assay, read-out: Assay B (IC50 class)): < 10 µM
2 | CC(C)CC(NC(=O)C(CCC(=O)O)NC(=O)OC(C)(C)C)C(=O)NC(CS)C(=O)NCCc1ccccc1Cl (centres unmarked) [Compound 114] |  | IC50 [1]: < 100 µM; IC50 ([2]; Table 1, NS3 protease domain/Pep4AK, 4AB peptide substrate, read-out: Assay B): < 10 µM
3 | CC(C)COC(=O)N[C@H](C(=O)N1C[C@H](c2ccccc2)C[C@H]1C(=O)N[C@@H](CS)C(=O)NCCc1ccc(C(=O)O)cc1Cl)C(C)C [Compound 521] | < 1 µM | 
4 | CC(C)COC(=O)N[C@H](C(=O)N1C[C@H](c2ccccc2)C[C@H]1C(=O)N[C@@H](CC(F)F)C(=O)NCCc1ccc(-c2noc(=O)[nH]2)cc1)C(C)C [Compound 519] | < 100 µM | 
5 | CC(C)COC(=O)N[C@H](C(=O)N1C[C@H](C2CCCCC2)C[C@H]1C(=O)N[C@@H](CC(F)F)C(=O)NCCc1c(F)cc(C(=O)O)cc1F)C(C)C [Compound 528] | < 1 µM | 
6 | CC(C)COC(=O)N[C@H](C(=O)N1C[C@H](C2CCCCC2)C[C@H]1C(=O)N[C@@H](CC(F)F)C(=O)NCCc1ccc(C(=O)O)cc1F)C(C)C [Compound 531] | < 10 µM | 
7 | CC(C)[C@H](O)C(=O)N1C[C@H](OCCCc2ccccc2)CC1C(=O)N[C@@H](CC(F)F)C(=O)NCCc1c(F)cc(C(=O)O)cc1F (some centres unmarked) [Compound 616] |  | IC50 ([1]; Table 6, full-length NS3/NS4A, read-out: Assay A): < 100 µM
8 | CC(C)COC(=O)N[C@@H](CCC(=O)O)C(=O)N1C[C@H](O)C[C@H]1C(=O)N[C@@H](CS)C(=O)NCCc1ccccc1Cl [Compound 503] | < 100 µM | 
9 | CC(C)COC(=O)NC(CCC(=O)O)C(=O)N1CCCC1C(=O)NC(CS)C(=O)NCCc1ccccc1Cl (centres unmarked) [Compound 501] | < 100 µM | 
10 | CC(C)COC(=O)N[C@H](C(=O)N1C[C@H](C2CCCCC2)C[C@H]1C(=O)N[C@@H](CC(F)F)C(=O)NCCc1c(F)cc(C(=O)O)cc1F)C1CCCC1 [Compound 538] | < 1 µM | 
11 | COc1ccc2c(O[C@@H]3C[C@@H](C(=O)N[C@@H](CC(F)F)C(=O)NCCc4c(F)cc(C(=O)O)cc4F)N(C(=O)[C@@H](NC(=O)OC(C)(C)C)C(C)(C)C)C3)cc(-c3ccccc3)nc2c1 [Compound 576] | < 1 µM | 
12 | CC(C)[C@H](NC(=O)OCC1CC1)C(=O)N1C[C@H](C2CCCCC2)C[C@H]1C(=O)N[C@@H](CC(F)F)C(=O)NCCc1c(F)cc(C(=O)O)cc1F [Compound 540] | < 1 µM | 
13 | CC(C)COC(=O)N[C@@H](CCC(=O)O)C(=O)N1C[C@H](c2ccccc2)C[C@H]1C(=O)N[C@@H](CS)C(=O)NCCc1ccc(C(=O)O)cc1 [Compound 512] | < 100 µM | 
14 | CC(C)COC(=O)N[C@@H](CCC(=O)O)C(=O)N1C[C@H](c2ccccc2)CC1C(=O)N[C@@H](CS)C(=O)NCCc1ccccc1Cl (some centres unmarked) [Compound 506] | < 10 µM | 
15 | CC(C)COC(=O)N[C@H](C(=O)N1C[C@H](c2ccccc2)C[C@H]1C(=O)N[C@@H](CC(F)F)C(=O)NCCc1cccc(OC(C(=O)O)c2ccccc2)c1)C(C)C (mixture of isomers) [Compound 569] | < 10 µM | 
16 | CC(C)C[C@H](NC(=O)C1(Cc2ccsc2C(=O)O)Cc2ccccc2N1)C(=O)N[C@@H](CC(F)F)C(=O)NCCc1cc2ccccc2[nH]1 (single isomer, unassigned) [Compound 707b] |  | IC50 ([1]; full-length NS3-NS4A heterodimer protein assay, read-out: Assay A (IC50 class)): < 100 µM
17 | CC(C)COC(=O)N[C@H](C(=O)N1C[C@H](c2ccccc2)C[C@H]1C(=O)N[C@@H](CC(F)F)C(=O)NCCc1cn(CCC(=O)O)c2ccccc12)C(C)C [Compound 573] | < 100 µM | 
18 | CC(C)COC(=O)N[C@@H](CCC(=O)O)C(=O)N1C[C@H](c2ccccc2)C[C@H]1C(=O)N[C@@H](CS)C(=O)NCCc1ccccc1Br [Compound 508] | < 100 µM | 
19 | O=C(O)CC[C@H](NS(=O)(=O)c1cccc2ccccc12)C(=O)N1C[C@H](c2ccccc2)C[C@H]1C(=O)N[C@@H](CS)C(=O)NCCc1ccc(C(=O)O)cc1 [Compound 513] | < 100 µM | 
20 | CC(C)COC(=O)N[C@H](C(=O)N1C[C@H](S(=O)(=O)C2CCCCC2)C[C@H]1C(=O)N[C@@H](CC(F)F)C(=O)NCCc1c(F)cc(C(=O)O)cc1F)C(C)C [Compound 553] | < 1 µM | 

Row | SMILES | IC50 [1, 3] | also measured
21 | CC(C)COC(=O)N[C@H](C(=O)N1C[C@H](c2ccccc2)C[C@H]1C(=O)N[C@@H](CC(F)F)C(=O)NCCc1cccc(NC(C(=O)O)c2ccccc2)c1)C(C)C (mixture of isomers) [Compound 564] | < 10 µM | 
22 | CC(C)COC(=O)N[C@H](C(=O)N1C[C@H](S(=O)(=O)C2CCCCC2)C[C@H]1C(=O)N[C@@H](CC(F)F)C(=O)NCCc1c(F)cc(-c2nn[nH]n2)cc1F)C(C)C [Compound 556] | < 1 µM | 
23 | CC(C)COC(=O)N[C@@H](CCC(=O)O)C(=O)N1C[C@H](c2ccccc2)C[C@H]1C(=O)N[C@@H](CC(F)F)C(=O)NCCc1ccccc1-c1ccccc1 [Compound 510] | < 10 µM | 
24 | CC(C)COC(=O)N[C@H](C(=O)N1C[C@H](c2ccccc2)C[C@H]1C(=O)N[C@@H](CC(F)F)C(=O)NCCc1cc(OC(C(=O)O)c2cccc(Cl)c2)ccc1Cl)C(C)C (mixture of isomers) [Compound 571] | < 10 µM | 
25 | CC(C)COC(=O)N[C@H](C(=O)N1C[C@H](OCc2ccccc2)C[C@H]1C(=O)N[C@@H](CC(F)(F)F)C(=O)NCCc1c(F)cc(C(=O)O)cc1F)C(C)C [Compound 530] | < 10 µM | 
26 | CC(C)COC(=O)NC(C(=O)NC(CC(C)C)C(=O)NC(CC(F)F)C(=O)NCCc1ccccc1CCC(=O)O)C(C)C (centres unmarked) [Compound 125] |  | IC50 ([1]; Table 1, full-length NS3/NS4A, NS5A-NS5B peptide substrate, read-out: Assay A): < 100 µM
27 | CC(C)COC(=O)N[C@H](C(=O)N1C[C@H](c2ccccc2)C[C@H]1C(=O)N[C@@H](CS)C(=O)NCCc1ccc(C(=O)O)cc1)C(C)C [Compound 516] | < 10 µM | 
28 | CC(C)COC(=O)N[C@H](C(=O)N1C[C@@H](OCc2ccccc2)C[C@H]1C(=O)N[C@@H](CC(F)F)C(=O)NCCc1c(F)cc(C(=O)O)cc1F)C(C)C [Compound 527] | < 10 µM | 
29 | CC(C)COC(=O)N[C@H](C(=O)N1C[C@H](c2ccccc2)C[C@H]1C(=O)N[C@@H](CC(F)F)C(=O)NCCc1cc(/C=C/C(=O)O)ccc1F)C(C)C [Compound 561] | < 1 µM | 
30 | CC(C)COC(=O)N[C@H](C(=O)N1C[C@H](C2CCCCC2)C[C@H]1C(=O)N[C@@H](CC(F)(F)F)C(=O)NCCc1c(F)cc(C(=O)O)cc1F)C(C)C [Compound 529] | < 10 µM | 
31 | O=C(O)CC[C@H](NC(=O)[C@@H](O)c1ccccc1)C(=O)N1C[C@H](c2ccccc2)C[C@H]1C(=O)N[C@@H](CS)C(=O)NCCc1ccc(C(=O)O)cc1 [Compound 515] | < 100 µM | 
32 | CCCS[C@@H]1C[C@@H](C(=O)N[C@@H](CC(F)F)C(=O)NCCc2c(F)cc(C(=O)O)cc2F)N(C(=O)[C@@H](NC(=O)OCC(C)C)C(C)C)C1 [Compound 548] | < 1 µM | 
33 | CC(C)COC(=O)N[C@@H](CCC(=O)O)C(=O)N1C[C@H](OCc2ccccc2)C[C@H]1C(=O)N[C@@H](CS)C(=O)NCCc1ccccc1Cl [Compound 507] | < 10 µM | 
34 | CC[C@H](NC(=O)[C@@H]1C[C@@H](c2ccccc2)CN1C(=O)[C@@H](NC(=O)OCC(C)C)C(C)C)C(=O)NCCc1c(F)cc(C(=O)O)cc1F [Compound 525] | < 100 µM | 
35 | CC(C)COC(=O)N[C@H](C(=O)N1C[C@H](c2ccccc2)C[C@H]1C(=O)N[C@@H](CC(F)F)C(=O)NCCc1c(F)cc(-c2nn[nH]n2)cc1F)C(C)C [Compound 554] | < 1 µM | 
36 | CC(C)COC(=O)N[C@H](C(=O)N1C[C@H](c2ccccc2)C[C@H]1C(=O)N[C@@H](CC(F)F)C(=O)NCCc1c(F)cc(C(=O)O)cc1F)C(C)(C)C [Compound 537] | < 10 µM | 
37 | COC(=O)c1ccc(CCNC(=O)[C@H](CS)NC(=O)[C@@H]2C[C@@H](c3ccccc3)CN2C(=O)[C@H](CCC(=O)O)NS(=O)(=O)c2cccc3ccccc23)cc1 [Compound 514] | < 100 µM | 
38 | COc1cccc(S(=O)(=O)[C@@H]2C[C@@H](C(=O)N[C@@H](CC(F)F)C(=O)NCCc3c(F)cc(C(=O)O)cc3F)N(C(=O)[C@@H](NC(=O)OCC(C)C)C(C)C)C2)c1 [Compound 547] | < 1 µM | 
39 | CCC(Oc1ccc(F)c(CCNC(=O)[C@H](CC(F)F)NC(=O)[C@@H]2C[C@@H](C3CCCCC3)CN2C(=O)[C@@H](NC(=O)OCC(C)C)C(C)C)c1F)C(=O)O (mixture of isomers) [Compound 568] | < 1 µM | 
